Here are results for one compound from patent US6372917B1, “Biphenylsulfonyl-substituted imidazole derivatives, their preparation process, their use as a drug or diagnostic agent and drug containing them” (Aventis Pharma Deutschland GmbH, priority 1998, dated 2002).

The test system of data set [1] is Na+-dependent Cl-/HCO3- exchanger (NCBE). Briefly: Inhibition of the Na+-dependent Cl-/HCO3- exchanger (NCBE) in human endothelial cells (pHi recovery, BCECF fluorescence, FLIPR). Type of data set: cell-based. To be noted: inhibitor concentration 10 μM; human endothelial cells (ECV-304); 50 μM HOE 642 present; 35° C., 2 minutes. Here is the method: Inhibition of the Na^+-dependent Cl^−/HCO3^− exchanger (NCBE) in human endothelial cells
Human endothelial cells (ECV-304) were detached from culture bottles with the aid of trypsin/EDTA buffer (0.05/0.02% in phosphate buffer) and, after centrifugation (100 g, 5 min), taken up in a buffered salt solution (mmol/l: 115 NaCl, 20 NH4Cl, 5 KCl, 1 CaCl2, 1 MgSO4, 20 N-(2-hydroxyethyl)piperazine-N-2-ethanesulfonic acid (HEPES), 5 glucose and 1 g/l of bovine serum albumin; pH 7.4). This cell suspension was incubated at 37° C. for 20 min with 5 μM BCECF-acetoxymethyl ester. […] For subsequent fluorescence measurement in an FLIPR (Fluorescent Imaging Plate Reader) 100 μl of this cell suspension having 20,000 cells in each case were pipetted per well into a 96-well microtiter plate and this microtiter plate was centrifuged (100 g, 5 min). […] After addition of the buffer solutions to the dye-loaded, acidified cells in the measurement plate, the rise in the fluorescence intensity, which corresponded to a rise in the pHi, in each well of the microtiter plate was determined. The kinetics were in this case recorded at 35° C. for a period of 2 minutes. The increase in the fluorescence intensities for different concentrations of the compounds according to the invention was related to the two controls and from this the inhibitory action of the substances was determined.

For the compound `CS(=O)(=O)c1cc(-c2ccccc2S(=O)(=O)NC#N)ccc1Cn1c(-c2ccccc2)nc(Cl)c1C=O` [Example 2, 4′-(4-Chloro-5-formyl-2-phenylimidazol-1-ylmethyl)-3′-methanesulfonylbiphenyl-2-sulfonylcyanamide], the melting point (as a rule, the temperature, or range, at which the solid turns liquid) is 220 °C (dec.). Moreover, in data set [1], the “Residual activity of the NCBE at an inhibitor concentration of 10 μM” value is listed as 18.3%.
